Assays:
[1] = system: Beet Armyworm (Spodoptera exigua) ("BAW"); test: Bioassay on Beet Armyworm (BAW), 128-well diet tray assay, percent mortality; type: in vivo; conditions: for BAW rating (percent mortality class): Beet Armyworm, 128-well diet tray assay; for pest or weed control at 50 µg/cm2: Spodoptera exigua, read-out: BAW
Excerpt: (§1) Bioassays on Beet Armyworm (Spodoptera exigua) (“BAW”) and Cabbage Looper (Trichoplusia ni) (“CL”)
(§2) BAW has few effective parasites, diseases, or predators to lower its population. BAW infests many weeds, trees, grasses, legumes, and field crops. In various places, it is of economic concern upon asparagus, cotton, corn, soybeans, tobacco, alfalfa, sugar beets, peppers, tomatoes, potatoes, onions, peas, sunflowers, and citrus, among other plants. The Cabbage Looper is a member of the moth family Noctuidae. It is found throughout the world. It is attacks cabbage, cauliflower, broccoli, Brussel sprouts, tomatoes, cucumbers, potatoes, kale, turnips, mustard, peppers, eggplant, watermelons, melons, squash, cantaloupe, peas, beans, collards, lettuce, spinach, celery, parsley, beets, peas, alfalfa, soybeans, and cotton. This species is very destructive to plants due to its voracious consumption of leaves. In the case of cabbage, however, they feed not only on the wrapper leaves, but also may bore into the developing head. The larvae consume three times their weight in plant material daily. The feeding sites are marked by large accumulations of sticky, wet fecal material.
(§3) Consequently, because of the above factors control of these pests is important.
(§4) Certain molecules disclosed in this document were tested against BAW and CEW using procedures described in the following examples. In the reporting of the results, the “BAW & CL Rating Table” was used (See Table Section).
(§5) Trays were covered with a clear self-adhesive cover and held at 25° C., 14:10 light-dark for five to seven days. Percent mortality was recorded for the larvae in each well; activity in the eight wells was then averaged. The results are indicated in the table entitled “Table ABC: Biological Results” (See Table Section).

[2] = system: Cabbage Looper (Trichoplusia ni) ("CL"); test: Bioassay on Cabbage Looper (CL), 128-well diet tray assay, percent mortality; type: in vivo; conditions: for CL rating (percent mortality class): Cabbage Looper, 128-well diet tray assay; for pest or weed control at 50 µg/cm2: Trichoplusia ni, read-out: CL
Excerpt: as §1, §2, §3, §4
Bioassays on Cabbage Looper in CL
as §5

SMILES | BAW rating (percent mortality class) [1] | CL rating (percent mortality class) [2] | pest or weed control at 50 µg/cm2 [1] | pest or weed control at 50 µg/cm2 [2]
CC(C)c1ccccc1NC(=S)NC(=O)NC1CC1c1ccc(-c2ncn(-c3ccc(OC(F)(F)F)cc3)n2)cc1 (stereo not shown) [F22, N-[2-(propan-2-yl)phenyl]-N′-[2-(4-{1-[4-(trifluoromethoxy)phenyl]-1H-1,2,4-triazol-3-yl}phenyl)cyclopropyl]dicarbonimidothioic diamide] | A (50-100) | A (50-100) |  | 
CCCc1ccccc1NC(=S)NC(=O)NC1CC1c1ccc(-c2ncn(-c3ccc(OC(F)(F)F)cc3)n2)cc1 (stereo not shown) [F23] | A (50-100) | A (50-100) |  | 
CCc1cccc(C)c1NC(=S)NC(=O)NC1CC1c1ccc(-c2ncn(-c3ccc(OC(F)(F)F)cc3)n2)cc1 (stereo not shown) [F24, N-(2-ethyl-6-methylphenyl)-N′-[2-(4-{1-[4-(trifluoromethoxy)phenyl]-1H-1,2,4-triazol-3-yl}phenyl)cyclopropyl]dicarbonimidothioic diamide] | A (50-100) | A (50-100) |  | 
Cc1cccc(C)c1NC(=S)NC(=O)NC1CC1c1ccc(-c2ncn(-c3ccc(OC(F)(F)F)cc3)n2)cc1 (stereo not shown) [F25] | A (50-100) | A (50-100) |  | 
COc1ccc(NC(=S)NC(=O)NC2CC2c2ccc(-c3ncn(-c4ccc(OC(F)(F)F)cc4)n3)cc2)c(C)c1 (stereo not shown) [F26] | A (50-100) | A (50-100) |  | 
CCc1ccc(C)cc1NC(=S)NC(=O)NC1CC1c1ccc(-c2ncn(-c3ccc(OC(F)(F)F)cc3)n2)cc1 (stereo not shown) [F27, N-(2-ethyl-5-methylphenyl)-N′-[2-(4-{1-[4-(trifluoromethoxy)phenyl]-1H-1,2,4-triazol-3-yl}phenyl)cyclopropyl]dicarbonimidothioic diamide] | A (50-100) | A (50-100) |  | 
Cc1ccc(C(C)C)c(NC(=S)NC(=O)NC2CC2c2ccc(-c3ncn(-c4ccc(OC(F)(F)F)cc4)n3)cc2)c1 (stereo not shown) [F28, N-[5-methyl-2-(propan-2-yl)phenyl]-N′-[2-(4-{1-[4-(trifluoromethoxy)phenyl]-1H-1,2,4-triazol-3-yl}phenyl)cyclopropyl]dicarbonimidothioic diamide] | A (50-100) | A (50-100) |  | 
CCCc1ccccc1N1C(=O)CS/C1=N\C(=O)NC1CC1c1ccc(-c2ncn(-c3ccc(OC(F)(F)F)cc3)n2)cc1 (stereo not shown) [F30, (Z)-1-(4-oxo-3-(2-propylphenyl)thiazolidin-2-ylidene)-3-(2-(4-(1-(4-(trifluoromethoxy)phenyl)-1H-1,2,4-triazol-3-yl)phenyl)cyclopropyl)urea] | A (50-100) | A (50-100) |  | 
CCc1cccc(C)c1N1C(=O)CS/C1=N\C(=O)NC1CC1c1ccc(-c2ncn(-c3ccc(OC(F)(F)F)cc3)n2)cc1 (stereo not shown) [F31, (Z)-1-(3-(2-ethyl-6-methylphenyl)-4-oxothiazolidin-2-ylidene)-3-(2-(4-(1-(4-(trifluoromethoxy)phenyl)-1H-1,2,4-triazol-3-yl)phenyl)cyclopropyl)urea] | A (50-100) | A (50-100) |  | 
Cc1cccc(C)c1N1C(=O)CS/C1=N\C(=O)NC1CC1c1ccc(-c2ncn(-c3ccc(OC(F)(F)F)cc3)n2)cc1 (stereo not shown) [F32, (Z)-1-(3-(2,6-dimethylphenyl)-4-oxothiazolidin-2-ylidene)-3-(2-(4-(1-(4-(trifluoromethoxy)phenyl)-1H-1,2,4-triazol-3-yl)phenyl)cyclopropyl)urea] | A (50-100) | A (50-100) |  | 
CCc1ccc(C)cc1N1C(=O)CS/C1=N\C(=O)NC1CC1c1ccc(-c2ncn(-c3ccc(OC(F)(F)F)cc3)n2)cc1 (stereo not shown) [F33, (Z)-1-(3-(2-ethyl-5-methylphenyl)-4-oxothiazolidin-2-ylidene)-3-(2-(4-(1-(4-(trifluoromethoxy)phenyl)-1H-1,2,4-triazol-3-yl)phenyl)cyclopropyl)urea] | A (50-100) | A (50-100) |  | 
Cc1ccc(C(C)C)c(N2CCS/C2=N\C(=O)NC2CC2c2ccc(-c3ncn(-c4ccc(OC(F)(F)F)cc4)n3)cc2)c1 (stereo not shown) [F34, (Z)-1-(3-(2-isopropyl-5-methylphenyl)thiazolidin-2-ylidene)-3-(2-(4-(1-(4-(trifluoromethoxy)-phenyl)-1H-1,2,4-triazol-3-yl)phenyl)cyclopropyl)urea] | A (50-100) | A (50-100) |  | 
Cc1ccccc1N1C(=O)CS/C1=N\C(=O)NCc1ccc(-c2ncn(-c3ccc(OC(F)(F)F)cc3)n2)cc1 [P1, (Z)-1-(4-oxo-3-(o-tolyl)thiazolidin-2-ylidene)-3-(4-(1-(4-(trifluoromethoxy)phenyl)-1H-1,2,4-triazol-3-yl)benzyl)urea] |  |  | 50 to 100% | 50 to 100%
CCc1ccccc1N1C(=O)CS/C1=N\C(=O)NCc1ccc(-c2ncn(-c3ccc(OC(F)(F)F)cc3)n2)cc1 [P2, (Z)-1-(3-(2-ethylphenyl)-4-oxothiazolidin-2-ylidene)-3-(4-(1-(4-(trifluoromethoxy)phenyl)-1H-1,2,4-triazol-3-yl)benzyl)urea] |  |  | 50 to 100% | 50 to 100%
CC(C)c1cc(F)ccc1N1C(=O)CS/C1=N\C(=O)NCc1ccc(-c2ncn(-c3ccc(OC(F)(F)F)cc3)n2)cc1 [P3, (Z)-1-(3-(4-fluoro-2-isopropylphenyl)-4-oxothiazolidin-2-ylidene)-3-(4-(1-(4-(trifluoromethoxy)phenyl)-1H-1,2,4-triazol-3-yl)benzyl)urea] |  |  | 50 to 100% | 50 to 100%
Cc1ccc(N2C(=O)CS/C2=N\C(=O)NCc2ccc(-c3ncn(-c4ccc(OC(F)(F)F)cc4)n3)cc2)c(C(C)C)c1 [P5, (Z)-1-(3-(2-isopropyl-4-methylphenyl)-4-oxothiazolidin-2-ylidene)-3-(4-(1-(4-(trifluoromethoxy)phenyl)-1H-1,2,4-triazol-3-yl)benzyl)urea] |  |  | 50 to 100% | 50 to 100%
COc1ccc(N2C(=O)CS/C2=N\C(=O)NCc2ccc(-c3ncn(-c4ccc(OC(F)(F)F)cc4)n3)cc2)c(C)c1 [P6, (Z)-1-(3-(4-methoxy-2-methylphenyl)-4-oxothiazolidin-2-ylidene)-3-(4-(1-(4-(trifluoromethoxy)phenyl)-1H-1,2,4-triazol-3-yl)benzyl)urea] |  |  | 50 to 100% | 50 to 100%
CCc1ccc(C)cc1N1C(=O)CS/C1=N\C(=O)NCc1ccc(-c2ncn(-c3ccc(OC(F)(F)F)cc3)n2)cc1 [P7, (Z)-1-(3-(2-ethyl-5-methylphenyl)-4-oxothiazolidin-2-ylidene)-3-(4-(1-(4-(trifluoromethoxy)phenyl)-1H-1,2,4-triazol-3-yl)benzyl)urea] |  |  | 50 to 100% | 50 to 100%
CCCc1ccc(C)cc1N1C(=O)CS/C1=N\C(=O)NCc1ccc(-c2ncn(-c3ccc(OC(F)(F)F)cc3)n2)cc1 [P8, (Z)-1-(3-(5-methyl-2-propylphenyl)-4-oxothiazolidin-2-ylidene)-3-(4-(1-(4-(trifluoromethoxy)phenyl)-1H-1,2,4-triazol-3-yl)benzyl)urea] |  |  | 50 to 100% | 50 to 100%
CC(C)c1ccccc1N1C(=O)CS/C1=N\C(=O)NCc1ccc(-c2ncn(-c3ccc(C(F)(F)F)cc3)n2)cc1 [P14, (Z)-1-(3-(2-isopropylphenyl)-4-oxothiazolidin-2-ylidene)-3-(4-(1-(4-(trifluoromethyl)phenyl)-1H-1,2,4-triazol-3-yl)benzyl)urea] |  |  | 50 to 100% | 50 to 100%
Cc1ccc(N2C(=O)CS/C2=N\C(=O)NCc2ccc(-c3ncn(-c4ccc(C(F)(F)F)cc4)n3)cc2)c(C(C)C)c1 [P15, (Z)-1-(3-(2-isopropyl-4-methylphenyl)-4-oxothiazolidin-2-ylidene)-3-(4-(1-(4-(trifluoromethyl)phenyl)-1H-1,2,4-triazol-3-yl)benzyl)urea] |  |  | 50 to 100% | 50 to 100%
Cc1ccc(C(C)C)c(N2/C(=N/C(=O)NCCc3ccc(-c4ncn(-c5ccc(OC(F)(F)F)cc5)n4)cc3)SCC2C)c1 (stereo not shown) [P58, (Z)-1-(3-(2-isopropyl-5-methylphenyl)-4-methylthiazolidin-2-ylidene)-3-(4-(1-(4-(trifluoromethoxy)phenyl)-1H-1,2,4-triazol-3-yl)phenethyl)urea] |  |  | 50 to 100% | 50 to 100%
Cc1ccc(C(C)C)c(N2CCCS/C2=N\C(=O)NCCc2ccc(-c3ncn(-c4ccc(OC(F)(F)F)cc4)n3)cc2)c1 [P59, (Z)-1-(3-(2-isopropyl-5-methylphenyl)-1,3-thiazinan-2-ylidene)-3-(4-(1-(4-(trifluoromethoxy)phenyl)-1H-1,2,4-triazol-3-yl)phenethyl)urea] |  |  | 50 to 100% | 50 to 100%

— patent US20140274688A1, “MOLECULES HAVING CERTAIN PESTICIDAL UTILITIES, AND INTERMEDIATES, COMPOSITIONS, AND PROCESSES RELATED THERETO” (DOW AGROSCIENCES LLC, priority 2013, published 2014)
